# Data published in patent US8420114B2, “Alpha and beta adrenergic receptor agonists for treatment of pain and / or inflammation” (Warsaw Orthopedic, Inc., priority 2008, dated 2013).
# Experiments:
# [1] = tested on: rat Chronic Constriction Injury model (Bennett Model) of neuropathic pain; assay: Hargreaves test of thermal hyperalgesia (thermal paw withdrawal latency) in rat chronic constriction injury model; type: in vivo, Wistar rat
# Description: (§1) The inventors evaluated the efficacy of a various alpha-2-adrenergic receptor agonists and compared them against saline in the rat Chronic Constriction Injury model (i.e., Bennett Model) using Wistar rats. […] The doses given would mimic those achievable by a continuous release drug depot containing a biodegradable polymer (7 rats in each group).
# Each group received the treatment indicated above for total of 15 days and subjected to the following two tests: (1) the Hargreaves test on days 7 and 14; and (2) the von Frey test on days 8 and 15.
# (§2) Results from another rat chronic constriction injury model study silimar to that discussed in Example 5, except some drug compositions having predominantly alpha 1 agonist activity and some drug compositions having predominantly alpha 2 agonist activity were given as indicated in the table below. The doses given would mimic those achievable by a continuous release drug depot containing a biodegradable polymer (7 rats in each group). […]
# (§3) The inventors evaluated the efficacy of a various beta-2-adrenergic receptor agonists and compared them to clonidine (an alpha-2-agonist) and saline in the rat Chronic Constriction Injury model (i.e., Bennett Model) using Wistar rats.
# (§4) Hargreaves tests were conducted on days 7 and 14; and von Frey tests were performed on days 8 and 15, where some drug compositions having predominantly beta-2 agonist activity were compared to clonidine a drug composition that has predominantly alpha-2 agonist activity and saline. The doses given would mimic those achievable by a continuous release drug depot containing a biodegradable polymer (7 rats in each group).
# Each group received the treatment indicated above for total of 15 days and the following two tests: (1) the Hargreaves test on days 7 and 14; and (2) the von Frey test on days 8 and 15.
# [2] = tested on: rat Chronic Constriction Injury model (Bennett Model) of neuropathic pain; assay: von Frey monofilament test of mechanical allodynia (mechanical threshold) in rat chronic constriction injury model; type: in vivo, Wistar rat
# Description: as §1, with “group). […]” for “group).”
# as §2, §3
# as §4, with “[…],” for “and von Frey tests were performed on days 8 and 15,”, “group). […]” for “group).”
# [3] = Example 5, FIG. 36, 100 micrograms/kg subcutaneous every day for 15 days, days 7 and 14
# [4] = Example 7, FIG. 40, 5 mg/kg subcutaneous every day for 15 days, day 14, vs saline
smiles,measurement,setting,value
Cc1cccc(C(C)c2cnc[nH]2)c1C (centres unmarked) [medetomidine],pain behavioral response for thermal hyperalgesia,[1]; [3],statistically significant result of decreasing pain responses
same,pain behavioral response for thermal hyperalgesia,"[1]; Example 5, FIG. 36, 200 micrograms/kg subcutaneous every day for 15 days, day 14",statistically significant result of decreasing pain responses
same,pain behavioral response for mechanical allodynia,"[2]; Example 5, FIG. 35, 200 micrograms/kg subcutaneous every day for 15 days, day 15, vs saline",statistically significant results of decreasing pain responses
N=C(N)NC(=O)Cc1c(Cl)cccc1Cl [guanfacine],pain behavioral response for thermal hyperalgesia,"[1]; Example 5, FIG. 36, 5 mg/kg subcutaneous every day for 15 days, days 7 and 14",statistically significant result of decreasing pain responses
same,pain behavioral response for mechanical allodynia,"[2]; Example 5, FIG. 35, 5 mg/kg subcutaneous every day for 15 days, day 15, vs saline",statistically significant results of decreasing pain responses
Clc1ccc2nsnc2c1NC1=NCCN1 [tizanidine],pain behavioral response for thermal hyperalgesia,[1]; [3],statistically significant result of decreasing pain responses
same,pain behavioral response for mechanical allodynia,"[2]; Example 5, FIG. 35, 100 micrograms/kg subcutaneous every day for 15 days, day 15, vs saline",statistically significant results of decreasing pain responses
CC(C)(C)NCC(O)c1cc(O)cc(O)c1 (centres unmarked) [terbutaline],pain behavioral response for thermal hyperalgesia,"[1]; Example 7, FIG. 39, 0.1 mg/kg subcutaneous every day for 15 days, days 7 and 14, vs saline",statistically significant result of decreasing pain responses
same,pain behavioral response for thermal hyperalgesia,"[1]; Example 7, FIG. 39, 0.5 mg/kg subcutaneous every day for 15 days, days 7 and 14, vs saline",statistically significant result of decreasing pain responses
same,pain behavioral response for mechanical allodynia,"[2]; Example 7, FIG. 40, 0.5 mg/kg subcutaneous every day for 15 days, day 14, vs saline",statistically significant result of decreasing pain responses
N=C(N)N/N=C/c1c(Cl)cccc1Cl [guanabenz],pain behavioral response for thermal hyperalgesia,"[1]; Example 6, FIG. 37, 1 mg/kg subcutaneous every day for 15 days, day 7",statistically significant result of decreasing pain responses
same,pain behavioral response for mechanical allodynia,"[2]; Example 6, FIG. 38, 1 mg/kg subcutaneous daily, day 8, compared to saline",decreased mechanical allodynia
same,pain behavioral response for mechanical allodynia,"[2]; Example 6, FIG. 38, 5 mg/kg subcutaneous daily, day 15, compared to saline",decreased mechanical allodynia
CC(C)(C)NCC(O)c1ccc(O)c(CO)c1 (centres unmarked) [salbutamol],pain behavioral response for thermal hyperalgesia,"[1]; Example 7, FIG. 39, 5 mg/kg subcutaneous every day for 15 days, days 7 and 14, vs saline",statistically significant result of decreasing pain responses
same,pain behavioral response for thermal hyperalgesia,"[1]; Example 7, FIG. 39, 10 mg/kg subcutaneous every day for 15 days, days 7 and 14, vs saline",statistically significant result of decreasing pain responses
same,pain behavioral response for mechanical allodynia,[2]; [4],statistically significant result of decreasing pain responses
same,pain behavioral response for mechanical allodynia,"[2]; Example 7, FIG. 40, 10 mg/kg subcutaneous every day for 15 days, days 8 and 15, vs saline",statistically significant result of decreasing pain responses
Cc1cc(C(C)(C)C)c(O)c(C)c1CC1=NCCN1 [oxymetazoline],pain behavioral response for thermal hyperalgesia,"[1]; Example 6, FIG. 37, 0.1 mg/kg subcutaneous every day for 15 days, day 7",statistically significant result of decreasing pain responses
same,pain behavioral response for thermal hyperalgesia,"[1]; Example 6, FIG. 37, 0.3 mg/kg subcutaneous every day for 15 days, days 7 and 14",statistically significant result of decreasing pain responses
same,pain behavioral response for mechanical allodynia,"[2]; Example 6, FIG. 38, 0.1 mg/kg subcutaneous every day for 15 days, day 8 and 15, compared to saline",decreasing pain responses
same,pain behavioral response for mechanical allodynia,"[2]; Example 6, FIG. 38, 0.3 mg/kg subcutaneous every day for 15 days, day 8 and 15, compared to saline",decreasing pain responses
"Clc1cccc(Cl)c1N=C1NCCN1 [clonidine, 2,6-dichloro-N-2-imidazolidinyldenebenzenamine]",pain behavioral response for thermal hyperalgesia,"[1]; Example 5, FIG. 36, 0.02 mg/kg subcutaneous every day for 15 days, days 7 and 14",statistically significant result of decreasing pain responses
same,pain behavioral response for thermal hyperalgesia,"[1]; Example 6, FIG. 37, 0.02 mg/kg subcutaneous every day for 15 days, days 7 and 14",statistically significant result of decreasing pain responses
same,pain behavioral response for thermal hyperalgesia,"[1]; Example 7, FIG. 39, 0.02 mg/kg subcutaneous every day for 15 days, day 14, vs saline",statistically significant result of decreasing pain responses
same,pain behavioral response for mechanical allodynia,"[2]; Example 5, FIG. 35, 0.02 mg/kg subcutaneous every day for 15 days, day 15, vs saline",statistically significant results of decreasing pain responses
same,pain behavioral response (measured as a percentage of baseline) for mechanical allodynia,"[2]; clonidine subcutaneously 0.02 mg/kg/day, compared to unloaded polymer depots, FIG. 4",reduced the behavioral response
CC(NCCc1ccc(O)cc1)C(O)c1ccc(O)cc1 (centres unmarked) [ritodrine],pain behavioral response for thermal hyperalgesia,"[1]; Example 7, FIG. 39, 2 mg/kg subcutaneous every day for 15 days, day 7, vs saline",statistically significant result of decreasing pain responses
same,pain behavioral response for thermal hyperalgesia,"[1]; Example 7, FIG. 39, 5 mg/kg subcutaneous every day for 15 days, day 14, vs saline",statistically significant result of decreasing pain responses
same,pain behavioral response for mechanical allodynia,[2]; [4],statistically significant result of decreasing pain responses
CNC[C@H](O)c1cccc(O)c1 [phenylephrine],pain behavioral response for thermal hyperalgesia,"[1]; Example 6, FIG. 37, 2 mg/kg subcutaneous every day for 15 days, day 7",statistically significant result of decreasing pain responses
same,pain behavioral response for thermal hyperalgesia,"[1]; Example 6, FIG. 37, 10 mg/kg subcutaneous every day for 15 days, days 7 and 14",statistically significant result of decreasing pain responses
same,pain behavioral response for mechanical allodynia,"[2]; Example 6, FIG. 38, 10 mg/kg subcutaneous daily, day 8, compared to saline",decreased mechanical allodynia
